Consider 4 compounds from patent publication US20260092039A1, “DUAL INHIBITORS FOR THE TREATMENT OF ALZHEIMER'S DISEASE” (UNIVERSITAT DE BARCELONA, priority 2023, published 2026).

One data set relates to LPS stimulated BV2 cells. As to the kind of experiment: Cytokine release in LPS stimulated BV2 cells. The data set is classed as cell-based, murine. Particulars: 24 h. As for the experimental part: Compounds of formula I were diluted from 250 mM DMSO stock solutions to a 10 mM stock in DMSO. Thereafter, the compounds were diluted to 10 μM and 1 μM in medium, so that the final DMSO concentration in the well was 0.1% for all conditions. The stock solutions were stored at −20° C. until further use.
Culture and treatment of BV-2 cells: The murine microglial cell line BV-2 was cultivated in Dulbecco's modified eagle medium (DMEM) supplemented with 10% fetal calf serum (FCS), 1% penicillin/streptomycin and 2 mM L-glutamine (culture medium). For the lipopolysaccharide (LPS) stimulation assay, 20,000 BV-2 cells per well (uncoated 96 well plates) were plated out. After 48 h, the medium was changed to treatment medium (DMEM, 5% FCS, 2 mM L-glutamine) and cells were maintained in treatment medium for the remaining culture period. After changing cells to treatment medium, the compounds were administered 1 h before LPS stimulation (Sigma-Aldrich; L6529; 1 mg/mL stock in ddH2O, final concentration in well: 100 ng/mL (dilutions in medium)). Cells treated with vehicle and LPS alone served as controls. All wells were handled the same way. After 24 h of stimulation, cell supernatants were collected for the cytokine measurement. The experiment was performed in n=6 technical replicates for all groups.
Cytokine measurement: The samples were diluted 1:2 and analysed for 4 cytokines (IL-1β, IL-2, IL-6, TNF-α) with a commercially available immunosorbent assay kit (U-plex, K15069L, Mesoscale Discovery) according to the instructions of the manufacturer. In brief, 25 μL of diluent 41 and 25 μL sample or respective standard were placed into wells of the pre-coated U-plex plate and incubated on an orbital shaker at room temperature for 1 h. Plates were washed 3 times with phosphate buffered saline with 0.05% Tween 20 (PBST) and thereafter 50 μL of detection antibody were added. Plates were again incubated on an orbital shaker at room temperature for 1 h. After another 3 washing steps with PBST, 150 μL of Mesoscale Discovery (MSD) GOLD Read Buffer were added and plates were read on Sector imager. Data were evaluated in comparison to calibration curves provided in the kit.
Statistics: Basic statistical analysis was performed. Group differences were evaluated by e.g. one-way ANOVA followed by a posthoc test, if appropriate.

Data set [1] concerns primary mouse cortical neurons. As to the kind of experiment: MTT viability assay in mouse primary cortical neurons. The data set is classed as cell-based. As to the method:
The compounds were diluted from 250 mM DMSO stocks to a 100 mM stock in DMSO. Thereafter, compounds were diluted to 100 μM, 20 μM, 5 μM, 1 μM, 0.2 μM, 0.05 μM, 0.01 μM and 0.001 μM dilution in medium, so that the final DMSO concentration in the well was 0.1% for all conditions. Stock solutions were stored at −20° C. until further use.
Isolation and treatment of primary mouse cortical neurons: Primary cortical neurons were prepared from timed pregnant wild-type C57BL/6JRccHsd mice at E16.5-E18. Animals were sacrificed by carbon dioxide and embryos were dissected in Calcium and Magnesium free Hanks Balanced Salt Solution (CMF-HBSS) containing 15 mM HEPES and 10 mM NaHCO3, pH 7.2. Embryos were decapitated, skin and skull gently removed and cortical hemispheres were separated. After removing meninges and brain stem, the cortex was isolated, chopped with a sterile razor blade in Chop solution (Hibernate-E without Calcium containing 2% B-27) and digested in 2 mg/mL papain (Worthington) dissolved in Hibernate-E without Calcium for 30 min at 30° C. Cortices were triturated for 10-15 times with a fire-polished silanized Pasteur pipette in Hibernate-E without Calcium containing 2% B-27, 0.01% DNaseI, 1 mg/mL BSA, and 1 mg/mL Ovomucoid Inhibitor. Undispersed pieces were allowed to settle by gravity for 1 min and the supernatant was centrifuged for 3 min at 228 g. The pellet was resuspended in Hibernate-E containing 2% B-27, 0.01% DNaseI, 1 mg/mL BSA, 1 mg/mL Ovomucoid Inhibitor and diluted with Hibernate-E containing 2% B-27. After the second centrifugation step (3 min at 228 g), the pellet was resuspended in nutrition medium without glutamate (Neurobasal, 2% B-27, 0.5 mM glutamine, 1% Penicillin-Streptomycin). Cells were counted in a hemacytometer and seeded in nutrition medium on poly-D-lysine pre-coated plates. Cells were cultured at 37° C.; 95% humidity and 5% CO2. All wells were handled the same way. On DIV8, cells were treated with the compounds for the evaluation of the neurotoxic effect. On DIV9, the MTT and LDH assays were performed as described below. The experiments were performed in six technical replicates for all groups per experiment.
MTT viability assay: Viability of cultures was determined on DIV9 by the MTT assay using a plate-reader (570 nm). MTT solution was added to each well in a final concentration of 0.5 mg/mL. After 2 h the MTT containing medium was aspirated. Cells were lysed in 3% SDS and the formazan crystals were dissolved in isopropanol/HCl. Optical density was measured with a plate-reader at wavelength 570 nm. Cell survival rate was expressed as optical density (OD). Values were calculated as percent of control values (vehicle control).

Take `CCC12CC3CC(C1)CC(NC(=O)NCCCn1cncc1C)(C3)C2` [Id, 1-(3-ethyladamantan-1-yl)-3-[3-(5-methyl-1H-imidazol-1-yl)propyl]urea]: the IL-1β level with LPS stimulated BV2 cells (compound 1 μM) is on record as 46 % of vehicle control; in the data set with LPS stimulated BV2 cells (compound 10 μM), 73 % of vehicle control. Moreover, the IL-2 level in the data set with LPS stimulated BV2 cells (compound 1 μM) is 38 % of vehicle control; with LPS stimulated BV2 cells (compound 10 μM), 26 % of vehicle control. Further, the IL-6 level was 34 % of vehicle control with LPS stimulated BV2 cells (compound 1 μM) and 24 % of vehicle control in the data set on LPS stimulated BV2 cells (compound 10 μM). The TNF-α level in the data set with LPS stimulated BV2 cells (compound 1 μM) is recorded as 98 % of vehicle control; with LPS stimulated BV2 cells (compound 10 μM), 84 % of vehicle control. The “primary cortical neuronal cell viability, MTT” value in data set [1] (compound 0.001 μM) is on record as 110 % of vehicle control; in data set [1] (compound 0.01 μM) it was 107 % of vehicle control; in data set [1] (compound 0.05 μM), 100 % of vehicle control; in data set [1] (compound 0.2 μM), 99 % of vehicle control; in data set [1] (compound 1 μM), 99 % of vehicle control; in data set [1] (compound 5 μM) it was 93 % of vehicle control. The “primary cortical neuronal cell viability, MTT” value was 89 % of vehicle control in data set [1] (compound 20 μM) and 53 % of vehicle control in data set [1] (compound 100 μM).
As to `Cc1cncn1CCCNC(=O)NC1C2CC3CC(C2)CC1C3` (stereo not shown) [Ii, 1-(adamantan-2-yl)-3-[3-(5-methyl-1H-imidazol-1-yl)propyl]urea], the IL-1β level in the data set with LPS stimulated BV2 cells (compound 1 μM) is 86 % of vehicle control; in the data set on LPS stimulated BV2 cells (compound 10 μM), 125 % of vehicle control. Moreover, the IL-2 level with LPS stimulated BV2 cells (compound 1 μM) is on record as 66 % of vehicle control; in the data set with LPS stimulated BV2 cells (compound 10 μM), 48 % of vehicle control. Also, the IL-6 level in the data set on LPS stimulated BV2 cells (compound 1 μM) is 63 % of vehicle control; in the data set on LPS stimulated BV2 cells (compound 10 μM), 62 % of vehicle control. Besides, the TNF-α level in the data set on LPS stimulated BV2 cells (compound 1 μM) is on record as 104 % of vehicle control; in the data set on LPS stimulated BV2 cells (compound 10 μM), 103 % of vehicle control. Also, the “primary cortical neuronal cell viability, MTT” value is 101 % of vehicle control in data set [1] (compound 0.001 μM); 95 % of vehicle control in data set [1] (compound 0.01 μM); 99 % of vehicle control in data set [1] (compound 0.05 μM); 96 % of vehicle control in data set [1] (compound 0.2 μM); 101 % of vehicle control in data set [1] (compound 1 μM); 101 % of vehicle control in data set [1] (compound 5 μM). Besides, the “primary cortical neuronal cell viability, MTT” value in data set [1] (compound 20 μM) is given as 101 % of vehicle control; in data set [1] (compound 100 μM), 55 % of vehicle control.
In the case of `Cc1cncn1CCCNC(=O)NC12CC3CC(CC(C)(C3)O1)C2` [Ir, 1-[3-(5-methyl-1H-imidazol-1-yl)propyl]-3-(3-methyl-2-oxaadamantan-1-yl)urea], the IL-1β level with LPS stimulated BV2 cells (compound 1 μM) is 77 % of vehicle control; in the data set with LPS stimulated BV2 cells (compound 10 μM), 94 % of vehicle control. Further, the IL-2 level with LPS stimulated BV2 cells (compound 1 μM) was 52 % of vehicle control; in the data set with LPS stimulated BV2 cells (compound 10 μM), 37 % of vehicle control. The IL-6 level is reported as 37 % of vehicle control in the data set on LPS stimulated BV2 cells (compound 1 μM) and 38 % of vehicle control in the data set on LPS stimulated BV2 cells (compound 10 μM). The figures for the TNF-α level in the data set with LPS stimulated BV2 cells (compound 1 μM) and in the data set on LPS stimulated BV2 cells (compound 10 μM) were 107 % of vehicle control and 102 % of vehicle control, respectively. The “primary cortical neuronal cell viability, MTT” value in data set [1] (compound 0.001 μM) was 97 % of vehicle control; in data set [1] (compound 0.01 μM) it was 97 % of vehicle control; in data set [1] (compound 0.05 μM), 93 % of vehicle control; in data set [1] (compound 0.2 μM) it was 99 % of vehicle control; in data set [1] (compound 1 μM) it was 101 % of vehicle control; in data set [1] (compound 5 μM) it was 99 % of vehicle control. Also, the results for the “primary cortical neuronal cell viability, MTT” value in data set [1] (compound 20 μM) and in data set [1] (compound 100 μM) were 99 % of vehicle control and 87 % of vehicle control, respectively.
As to `CCC12CC3CC(C1)CC(NC(=O)NCCCn1cncc1C)(C3)O2` [Is, 1-(3-ethyl-2-oxaadamantan-1-yl)-3-[3-(5-methyl-1H-imidazol-1-yl)propyl]urea], the IL-1β level was 95 % of vehicle control in the data set on LPS stimulated BV2 cells (compound 1 μM) and 124 % of vehicle control with LPS stimulated BV2 cells (compound 10 μM). For the same compound, the IL-2 level with LPS stimulated BV2 cells (compound 1 μM) is 66 % of vehicle control; in the data set on LPS stimulated BV2 cells (compound 10 μM), 48 % of vehicle control. Moreover, the IL-6 level with LPS stimulated BV2 cells (compound 1 μM) is given as 65 % of vehicle control; with LPS stimulated BV2 cells (compound 10 μM) it was 64 % of vehicle control. Also, the TNF-α level in the data set on LPS stimulated BV2 cells (compound 1 μM) and with LPS stimulated BV2 cells (compound 10 μM) was 104 % of vehicle control in each case. Further, the “primary cortical neuronal cell viability, MTT” value in data set [1] (compound 0.001 μM) was 104 % of vehicle control; in data set [1] (compound 0.01 μM), 102 % of vehicle control; in data set [1] (compound 0.05 μM) it was 103 % of vehicle control; in data set [1] (compound 0.2 μM), 96 % of vehicle control; in data set [1] (compound 1 μM) it was 101 % of vehicle control; in data set [1] (compound 5 μM), 103 % of vehicle control. Besides, the “primary cortical neuronal cell viability, MTT” value is given as 101 % of vehicle control in data set [1] (compound 20 μM) and 86 % of vehicle control in data set [1] (compound 100 μM).
